This is an account of results in patent US20080267935A1, “AraC in combination with a cytokine-secreting cell and methods of use thereof” (Cell Genesys, Inc., priority 2007, published 2008).

Structures are written as SMILES. Read-outs that look alike come from different tables or passages of the source.

Details of series [1]: species or system mice. Conditions: mouse, in vivo. As to the method: Hematologic and Phenotypic Analysis. Mice were injected intraperitoneally with AraC using the treatment regimen described below. Peripheral blood was collected by retro-orbital puncture into EDTA-coated capillary tubes on days 1, 2, 3, 4, 6, 8 and 11. Hematologic analysis was performed by IDEXX pre-clinical Research Services (West Sacramento, Calif.).
Prior to conducting the in vivo efficacy studies in the leukemia tumor models, the hematological toxicity of AraC was determined. The animals received three i.p. injections of 100 mg/kg AraC (volume of injection: 200 μl) in 10 hour-increments. This treatment regimen is equal to a total dose of 900 mg/m^2 and is within the total dose range of 700 to 1400 mg/m^2 used clinically in human patients. Neutropenia and lymphopenia are known to be the primary dose-limiting toxicity observed in patients, so AraC treated mice were monitored for absolute neutrophil and lymphocyte counts. The results are shown in FIG. 2A and FIG. 2B, respectively. After the three AraC administrations, peripheral blood was collected by retro-orbital puncture into EDTA-coated capillary tubes on days 1, 2, 3, 4, 6, 8 and 11 and analyzed for neutropenia. The absolute neutrophil count in the animals dropped to 45 neutrophils/μl, by day 4, rebounded to control level at 600 neutrophils/μl, by day 6 and remained at a steady level of around 600 neutrophils/μl, thereafter (FIG. 2A), which is similar to untreated control animals.

Series [2] has as its system Acute myeloid leukemias (AMLs). Conditions: cited from earlier work; for complete remissions: remission induction.
The next series has as its system C1498-luc tumor cells. In words: C1498-luc acute myeloid leukemia tumor model, survival and tumor burden. It counts as in vivo, C57BL/6 mice.

Protocol for C1498-luc tumor cells: To assess the in vivo progression of systemic disease, 2.5×10^4 of C1498-luc cells were injected intravenously via tail vein into C57BL/6 mice, their syngeneic host, and the mice were examined every few days for the presence of luminescent signal via live imaging (FIG. 1A). […] A total photon count of 5×10^8 from an individual tumor bearing animal was used as the end point of life expectancy.
The efficacy of the combination of cytosine arabinoside (AraC) and GM-CSF secreting cells was evaluated by carrying out animal studies in the syngeneic C1498-luc tumor model. In this model, following challenge with C1498-luc tumor cells as described above, the mice were randomized into control and individual treatment groups, as detailed in the examples. For anti-tumor memory assessment, animals which had previously received AraC in combination with GM-CSF-secreting cells were rechallenged with a lethal dose of C1498-luc cells approximately 100 days after receiving the combination therapy. A typical study in the C1498-luc tumor model makes use of at least 6 and generally 10-15 mice per group in order to obtain statistically significant results. Statistical significance is evaluated using the Student's t-test.
Tumor Model. Female C57Bl/6 mice were challenged with C1498-luc cells via intra-tail-vein injections with 2.5×10^4 inocula. The mice were prepared for in vivo bioluminescence imaging 5 to 10 minutes post injection to confirm the initial trafficking of the tumor cells from tail vein to the lungs. Briefly, the mice were injected i.p. with 1.5 mg/g luciferin substrate (Xenogen Corp., Alameda, Calif.). Fifteen minutes later, the mice were anesthetized for in vivo bioluminescence imaging analysis. […] The animals were monitored by in vivo imaging every 5 to 7 days throughout the study to monitor the systemic progression of the tumor. Individual animals were euthanized when in vivo total photon counts exceeded 5×10^8 and/or when determined to be clinically paralyzed.
In Vivo Treatment. […]

Consider `Nc1ccn([C@@H]2O[C@H](CO)[C@@H](O)[C@@H]2O)c(=O)n1` [AraC, 1-β-D-arabinofuranosylcytosine], for which, in series [1], the absolute neutrophil count was determined as 600 neutrophils/μl and the “drop of lymphocyte counts” value is on record as “greater than 40%”. For the same compound, in series [1] (ip, 100 mg/kg), the absolute neutrophil count was 45 neutrophils/μl and the “recovery of lymphocyte counts” value is given as “rebounded by day 6”. Besides, the dose-limiting toxicities entry in series [2] (patients) is “severe neutropenia and lymphopenia”. In series [2] (patients older than 60), the complete remissions is −50%. Moreover, in series [2] (younger adults), the complete remissions is about 75%. Besides, the “mice surviving for longer than 150 days post-challenge” value in the series on C1498-luc tumor cells (C1498-luc tumor bearing mice) is 30%. In the series on C1498-luc tumor cells (monotherapy), the “Number of tumor free animals 150 days post challenge” value is 0/10. The “Median Survival Time (MST)” value with C1498-luc tumor cells (monotherapy, AraC 3 i.p. injections of 100 mg/kg one day post challenge, or 1×10^6 irradiated C1498.GM s.c. day 7) came out at 61 days.
